In patent US20210246115A1 (Bioimics AB, priority 2017, published 2021) one finds IC50 and MIC data, which are given here for 24 compounds.

Where a name gives a salt, the structure may show the parent alone.

Assay [1] concerns E. coli RNase P RNA, M1 RNA. The assay can be described thus: Inhibition of bacterial RNase P activity, IC50 determination (cleavage of pATSerUG by M1 RNA). Conditions: NI: No inhibition. The assay is classed as biochemical.
Assay [2] deals with Escherichia coli (ATCC25922). The assay can be described thus: MIC, broth microdilution (CLSI), Escherichia coli. Conditions: Escherichia coli, ATCC25922, read-out: E. coli ATCC 25922 MIC, Table XIII.
Assay [3] has as its system Staphylococcus aureus (ATCC25923). The experiment in a line: MIC, broth microdilution (CLSI), Staphylococcus aureus ATCC25923. Conditions: Staphylococcus aureus, ATCC25923, read-out: S. aureus ATCC 25923 MIC. (Broth dilution looks for growth in wells or tubes with falling amounts of substance.)

In general, IC50 refers to the midpoint of a concentration-inhibition curve. Usually MIC stands for the lowest concentration found to suppress growth. Take `Cc1ccccc1C(CC(=O)NC1CCC(N)CC1)c1cn(CC2CCCCC2)c2ccccc12.Cl` [Compound 149, N-((1S,4S)-4-aminocyclohexyl)-3-(1-(cyclohexylmethyl)-1H-indol-3-yl)-3-(o-tolyl)propanamide hydrochloride salt]: the IC50 in assay [1] amounted to 13 µM. The results for the MIC in assay [2] and in assay [3] were greater than 512 µg/mL and 16 µg/mL, respectively.

In assay [1], `Cc1cc(F)cc(C(CC(=O)NC2CCC(N)CC2)c2cn(CC3CCCCC3)c3ccccc23)c1.Cl` [Compound 150, N-((1S,4S)-4-aminocyclohexyl)-3-(1-(cyclohexylmethyl)-1H-indol-3-yl)-3-(3-fluoro-5-methylphenyl) propanamide hydrochloride salt] yielded an IC50 of 64 µM. The MIC came to 512 µg/mL in assay [2] and 8 µg/mL in assay [3].

Turning to `COc1ccc2c(c1)c(C(CC(=O)NC1CCC(N)CC1)c1cccc(C)c1)cn2CC1CCCCC1.Cl` [Compound 151, N-((1S,4S)-4-aminocyclohexyl)-3-(1-(cyclohexylmethyl)-5-methoxy-1H-indol-3-yl)-3-(m-tolyl)propanamide hydrochloride salt], the IC50 in assay [1] was 45 µM. Moreover, the MIC stood at 128 µg/mL in assay [2] and 16 µg/mL in assay [3].

`Cc1cccc(C(CC(=O)N[C@H]2CC[C@H](N)CC2)c2cn(CC3CCCCC3)c3ccc(-c4ccccc4)cc23)c1.Cl` (stereo partly drawn) [Compound 153, N-((1R,4R)-4-aminocyclohexyl)-3-(1-(cyclohexylmethyl)-5-phenyl-1H-indol-3-yl)-3-(m-tolyl)propanamide hydrochloride salt]: the IC50 in assay [1] worked out at 41 µM. The MIC in assay [2] was greater than 512 µg/mL; in assay [3], 64 µg/mL.

`Cc1cccc(C(CC(=O)N[C@H]2CC[C@H](N)CC2)c2cn(C(C)C)c3ccccc23)c1.Cl` (stereo partly drawn) [Compound 154, N-((1R,4R)-4-aminocyclohexyl)-3-(1-isopropyl-1H-indol-3-yl)-3-(m-tolyl)propanamide hydrochloride salt] yielded an IC50 in assay [1] of 1230 µM. In addition, the MIC in assay [2] was 256 µg/mL; in assay [3] it was 128 µg/mL.

In turn, `Cl.N[C@H]1CC[C@H](NC(=O)CCc2cn(CC3CCCCC3)c3ccc(Br)cc23)CC1` [Compound 156, N-((1R,4R)-4-aminocyclohexyl)-3-(5-bromo-1-(cyclohexylmethyl)-1H-indol-3-yl)propanamide hydrochloride salt] displayed an IC50 in assay [1] of 16 µM. Moreover, the MIC in assay [2] was found to be 32 µg/mL; in assay [3], 16 µg/mL.

`Cl.NC1CCC(NC(=O)CC(c2ccnc(O)c2)c2cn(CC3CCCCC3)c3ccccc23)CC1` [Compound 157, N-((1S,4S)-4-aminocyclohexyl)-3-(1-(cyclohexylmethyl)-1H-indol-3-yl)-3-(2-hydroxypyridin-4-yl)propanamide hydrochloride salt] displayed an IC50 in assay [1] of 3.4 µM. Moreover, the MIC in assay [2] was determined as 262 µg/mL; in assay [3] it was 131 µg/mL.

On to `Cc1cccc(C(CC(=O)NC2CCC(N)CC2)c2cn(CC3CCNCC3)c3ccccc23)c1` [Compound 159, N-((1S,4S)-4-aminocyclohexyl)-3-(1-(piperidin-4-ylmethyl)-1H-indol-3-yl)-3-(m-tolyl)propanamide hydrochloride salt], for which, in assay [1], half-maximal inhibition (IC50) required 210 µM. Besides, the results for the MIC in assay [2] and in assay [3] were greater than 512 µg/mL and 279 µg/mL, respectively.

In assay [1], `COc1cccc(C(CC(=O)NC2CCC(N)CC2)c2cn(CC3CCCCC3)c3ccccc23)c1.Cl` [Compound 160, N-((1S,4S)-4-aminocyclohexyl)-3-(1-(cyclohexylmethyl)-1H-indol-3-yl)-3-(3-methoxyphenyl) propanamide hydrochloride salt] yielded an IC50 of 12 µM. For the same compound, the MIC is 67 µg/mL in assay [2] and 17 µg/mL in assay [3].

`Cl.N[C@H]1CC[C@H](NC(=O)CC(c2cn(CC3CCCCC3)c3ccccc23)C2CCCCC2)CC1` (stereo partly drawn) [Compound 162, N-((1R,4R)-4-aminocyclohexyl)-3-cyclohexyl-3-(1-(cyclohexylmethyl)-1H-indol-3-yl)propanamide hydrochloride salt] yielded an IC50 in assay [1] of 9 µM. Further, the MIC turned out to be 32 µg/mL in assay [2] and 4 µg/mL in assay [3].

In assay [1], `Cc1cccc(C(CC(=O)NC2CCC(N)CC2)c2cn(CC3CCCCC3)c3ccc(O)cc23)c1.Cl` [Compound 165, N-((1S,4S)-4-aminocyclohexyl)-3-(1-(cyclohexylmethyl)-5-hydroxy-1H-indol-3-yl)-3-(m-tolyl)propanamide hydrochloride salt] showed an IC50 of 18 µM. The MIC in assay [2] was found to be 67 µg/mL; in assay [3] it was 34 µg/mL.

In assay [1], `Cc1cccc(C(CC(=O)NC[C@H]2CC[C@H](CN)CC2)c2cn(CC3CCCCC3)c3ccccc23)c1.Cl` (stereo partly drawn) [Compound 166, N-(((1S,4S)-4-(aminomethyl)cyclohexyl)methyl)-3-(1-(cyclohexylmethyl)-1H-indol-3-yl)-3-(m-tolyl)propanamide hydrochloride salt] registered an IC50 of 7 µM. Moreover, the MIC in assay [2] was determined as 275 µg/mL; in assay [3], 9 µg/mL.

In assay [1], `Cc1cccc(C(CC(=O)N2CCC(CN)CC2)c2cn(CC3CCCCC3)c3ccccc23)c1.Cl` (stereo not drawn) [Compound 167, 1-(4-(aminomethyl)piperidin-1-yl)-3-(1-(cyclohexylmethyl)-1H-indol-3-yl)-3-(m-tolyl)propan-1-one hydrochloride salt] showed an IC50 of 14 µM. Moreover, the MIC in assay [2] is 65 µg/mL; in assay [3], 8 µg/mL.

For `Cc1cccc(C(CCNC2CCC(N)CC2)c2cn(CC3CCCCC3)c3ccc(Br)cc23)c1` [Compound 169, (1S,4S)-N1-(3-(5-bromo-1-(cyclohexylmethyl)-1H-indol-3-yl)-3-(m-tolyl)propyl)cyclohexane-1,4-diamine hydrochloride salt], in assay [1], the IC50 came out at 21 µM. Further, the MIC stood at 5 µg/mL in assay [2] and 2 µg/mL in assay [3].

For `NC1CCC(NCCC(c2cc(Cl)cc(Cl)c2)c2cn(CC3CCCCC3)c3ccccc23)CC1` [Compound 171, (1S,4S)-N1-(3-(1-(cyclohexylmethyl)-1H-indol-3-yl)-3-(3,5-dichlorophenyl)propyl) cyclohexane-1,4-diamine hydrochloride salt], in assay [1], the IC50 was found to be 12 µM. The MIC in assay [2] was 5 µg/mL; in assay [3] it was 2 µg/mL.

As to `NC1CCC(NCCC(c2cccc(F)c2)c2cn(CC3CCCCC3)c3ccccc23)CC1` [Compound 172, (1S,4S)-N1-(3-(1-(cyclohexylmethyl)-1H-indol-3-yl)-3-(3-fluorophenyl)propyl) cyclohexane-1,4-diamine hydrochloride salt], in assay [1], the IC50 was found to be 10 µM. Further, the MIC in assay [2] and in assay [3] was 4 µg/mL in each case.

The compound `Cc1cccc(C(CC(=O)NC2CCC(N)CC2)c2cn(CC3CCCCC3)c3c(Br)cccc23)c1.Cl` [Compound 174, N-((1S,4S)-4-aminocyclohexyl)-3-(7-bromo-1-(cyclohexylmethyl)-1H-indol-3-yl)-3-(m-tolyl)propanamide hydrochloride salt] had an IC50 in assay [1] of 32 µM. Besides, the figures for the MIC in assay [2] and in assay [3] were greater than 512 µg/mL and 150 µg/mL, respectively.

On to `Cc1cccc(C(CC(=O)NC2CCC(N)CC2)c2cn(CC3CCCCC3)c3cc(Br)ccc23)c1.Cl` [Compound 175, N-((1S,4S)-4-aminocyclohexyl)-3-(6-bromo-1-(cyclohexylmethyl)-1H-indol-3-yl)-3-(m-tolyl)propanamide hydrochloride salt], for which, in assay [1] (hydrochloride salt), the IC50 was determined as 59 µM. For the same compound, the MIC in assay [2] is greater than 512 µg/mL; in assay [3], 2 µg/mL.

Consider `Cc1cccc(C(CCNC[C@H]2CC[C@H](CN)CC2)c2cn(CC3CCCCC3)c3ccccc23)c1` (stereo partly drawn) [Compound 177, N-(((1R,4R)-4-(aminomethyl)cyclohexyl)methyl)-3-(1-(cyclohexylmethyl)-1H-indol-3-yl)-3-(m-tolyl)propan-1-amine hydrochloride salt], for which half-maximal inhibition in assay [1] (IC50) required 15 µM. Moreover, the minimum inhibitory concentration (MIC) amounted to 18 µg/mL in assay [2] and 9 µg/mL in assay [3].

Turning to `Cc1cccc(C(CC(=O)NC2CCCC(N)C2)c2cn(CC3CCCCC3)c3ccccc23)c1.Cl` (stereo not drawn) [Compound 178, N-(3-aminocyclohexyl)-3-(1-(cyclohexylmethyl)-1H-indol-3-yl)-3-(m-tolyl)propanamide hydrochloride salt], 20 µM corresponded to half-maximal inhibition in assay [1] (IC50). The MIC amounted to 65 µg/mL in assay [2] and 8 µg/mL in assay [3].

`Cc1cccc(C(CC(=O)N2CCC(N)CC2)c2cn(CC3CCCCC3)c3ccccc23)c1.Cl` (stereo not drawn) [Compound 179, 1-(4-aminopiperidin-1-yl)-3-(1-(cyclohexylmethyl)-1H-indol-3-yl)-3-(m-tolyl)propan-1-one hydrochloride salt] gave an IC50 in assay [1] of 12 µM. In addition, the MIC is 63 µg/mL in assay [2] and 8 µg/mL in assay [3].

`Cc1cccc(C(CC(=O)NCC2CCC(N)CC2)c2cn(CC3CCCCC3)c3ccccc23)c1.Cl` [Compound 180, N-(((1R,4R)-4-aminocyclohexyl)methyl)-3-(1-(cyclohexylmethyl)-1H-indol-3-yl)-3-(m-tolyl)propanamide hydrochloride salt] displayed an IC50 in assay [1] of 18 µM. Moreover, the MIC in assay [2] came to 67 µg/mL; in assay [3], 17 µg/mL.

For `Cc1cccc(C(CC(=O)N2CCC(CCN)CC2)c2cn(CC3CCCCC3)c3ccccc23)c1.Cl` (stereo not drawn) [Compound 181, 1-(4-(2-aminoethyl)piperidin-1-yl)-3-(1-(cyclohexylmethyl)-1H-indol-3-yl)-3-(m-tolyl)propan-1-one hydrochloride salt], in assay [1], the midpoint of inhibition, the IC50, lay at 11 µM. The figures for the MIC in assay [2] and in assay [3] were 134 µg/mL and 17 µg/mL, respectively.

Compound `Cc1cccc(C(CC(=O)NC2CCC(CN)CC2)c2cn(CC3CCCCC3)c3ccccc23)c1.Cl` (stereo not drawn) [Compound 182, N-((1r,4r)-4-(aminomethyl)cyclohexyl)-3-(1-(cyclohexylmethyl)-1H-indol-3-yl)-3-(m-tolyl)propanamide hydrochloride salt] registered an IC50 in assay [1] of 17 µM. Further, the figures for the MIC in assay [2] and in assay [3] were greater than 512 µg/mL and 17 µg/mL, respectively.
